Experimental data from PMC3904209 (AMB Express, 2014).

What was measured:
Details in all cases: 50 mM KHCO3, 50 mM HEPES, 50 mM Na2SO4, 50 mM MgSO4, pH 6, 1°C
Can2 = Can2 (Cupriavidus necator, UniProt Q0JYX2)
CaaB = molecular target: T1, CaaB (Cupriavidus necator, UniProt Q0JYI9)
T1 construct: gene caa

Cag = molecular target: T2, Cag (Cupriavidus necator, UniProt Q0KCD8)
T2 construct: gene H16_A1192

Caa = Caa (Cupriavidus necator, UniProt Q0JYI9)
Can = Can (Cupriavidus necator, UniProt Q0KFA0)
Can, sequence (Q0KFA0 1-223): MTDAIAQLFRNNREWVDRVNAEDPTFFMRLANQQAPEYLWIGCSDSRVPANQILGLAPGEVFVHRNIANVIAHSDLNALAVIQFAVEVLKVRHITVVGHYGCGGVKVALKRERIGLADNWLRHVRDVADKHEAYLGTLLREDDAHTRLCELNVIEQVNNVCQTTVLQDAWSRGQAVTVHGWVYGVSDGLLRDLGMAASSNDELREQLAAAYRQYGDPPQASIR

Can2, sequence (Q0JYX2 1-235): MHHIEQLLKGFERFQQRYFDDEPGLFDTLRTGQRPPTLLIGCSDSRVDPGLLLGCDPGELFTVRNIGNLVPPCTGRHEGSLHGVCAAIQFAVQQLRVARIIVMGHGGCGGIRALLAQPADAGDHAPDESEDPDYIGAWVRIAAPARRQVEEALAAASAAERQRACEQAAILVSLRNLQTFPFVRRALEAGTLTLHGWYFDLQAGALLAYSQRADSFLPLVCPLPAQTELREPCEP
T1 sequence (Q0JYI9 24-249): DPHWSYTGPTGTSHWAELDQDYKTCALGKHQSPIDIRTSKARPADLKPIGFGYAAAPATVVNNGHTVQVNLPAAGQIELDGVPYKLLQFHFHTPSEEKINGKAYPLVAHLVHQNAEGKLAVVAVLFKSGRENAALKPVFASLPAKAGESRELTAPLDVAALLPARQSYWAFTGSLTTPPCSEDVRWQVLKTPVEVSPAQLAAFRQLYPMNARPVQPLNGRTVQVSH
Caa, sequence (Q0JYI9 1-249): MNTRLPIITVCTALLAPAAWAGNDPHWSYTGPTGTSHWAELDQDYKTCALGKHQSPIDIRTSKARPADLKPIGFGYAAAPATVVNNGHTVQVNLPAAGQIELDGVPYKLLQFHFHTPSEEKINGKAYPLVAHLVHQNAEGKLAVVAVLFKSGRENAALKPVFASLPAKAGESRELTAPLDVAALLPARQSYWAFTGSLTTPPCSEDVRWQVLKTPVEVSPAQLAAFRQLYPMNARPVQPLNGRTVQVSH
T2 sequence (Q0KCD8 1-174): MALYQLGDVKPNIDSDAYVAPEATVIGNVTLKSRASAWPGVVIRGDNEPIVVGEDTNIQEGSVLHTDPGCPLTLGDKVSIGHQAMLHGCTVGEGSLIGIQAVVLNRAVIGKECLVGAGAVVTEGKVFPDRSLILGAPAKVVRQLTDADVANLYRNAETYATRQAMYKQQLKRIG

## O=C(O)O [bicarbonate]
Can2
  stopped-flow pH-indicator (phenol red, A557nm) assay: the specific activities of both Can and Can2 were similar with bicarbonate as a substrate
CaaB
  stopped-flow pH-indicator (phenol red, A557nm) assay: (CaaB) exhibited similar activity values when compared to the purified, Strep-tagged Caa enzyme
Cag
  stopped-flow pH-indicator (phenol red, A557nm) assay: Cag presented the highest activity using bicarbonate as a carbon source
Caa
  stopped-flow pH-indicator (phenol red, A557nm) assay: All CAs were active towards CO2 and bicarbonate
Can
  stopped-flow pH-indicator (phenol red, A557nm) assay: the specific activities of both Can and Can2 were similar with bicarbonate as a substrate
